Assay results from patent US10857246B2, “Nuclear imaging and radiotherapeutics agents targeting carbonic anhydrase IX and uses thereof” (THE JOHNS HOPKINS UNIVERSITY, priority 2015, dated 2020).
“And” between values parts separate entries of the source, which are not always exact repeats. Equal values may be shown once.

System: CAIX-expressing SK-RC-52 tumors
Assay: Biodistribution in mice bearing SK-RC-52 xenografts
Format: in vivo
Conditions: for Biodistribution Bladder / Biodistribution Blood / Biodistribution Brain / Biodistribution Fat / Biodistribution Heart / Biodistribution Kidney / Biodistribution Liver / Biodistribution Lung / Biodistribution Muscle / Biodistribution Pancreas / Biodistribution Small intestine / Biodistribution Spleen / Biodistribution Stomach / Biodistribution Tumor / Tumor/Kidney ratio / Tumor/Blood ratio / Tumor/Muscle ratio: 740 kBq i.v.
Method: Animal experiments were performed in accordance with protocols approved by the Johns Hopkins Animal Care and Use Committee (ACUC). Six-week-old female NOD/SCID mice were purchased from the Animal Resource Core of the Sidney Kimmel Comprehensive Cancer Center of Johns Hopkins and were subcutaneously injected in the lower left flank or upper right flank with 1×10^6 SK-RC-52 cells in RPMI 1640 GlutaMAX™ media (Life Technologies, Frederick, Md.) supplemented with 1% fetal bovine serum (FBS). Mice were monitored for tumor size and used for SPECT/CT imaging when the size of the tumor reached 100 mm^3.
Mice bearing SK-RC-52 xenografts at lower left flank were injected intravenously with 740 kBq (20 μCi) of [^111In]XYIMSR-01, or [^177Lu]XYIMSR-01 in 200 μL of PBS. For competitive blocking, same tumor bearing mice were injected with 740 kBq (20 μCi) of [^111In]XYIMSR-01 and 200 nmole of 8 in 200 μL of PBS. At 1 h, 4 h, 8 h, 24 h and 48 h post-injection, mice were sacrificed by cervical dislocation and the blood was immediately collected by cardiac puncture. Heart, lungs, pancreas, spleen, fat, brain, muscle, small intestines, liver, stomach, kidney, urinary bladder, and tumor were collected. Each organ was weighed and the tissue radioactivity was measured with an automated gamma counter (1282 Compugamma CS, Pharmacia/LKBNuclear, Inc., Mt. Waverly, Vic. Australia). The percentage of injected dose per gram of tissue (% ID/g) was calculated by comparison with samples of a standard dilution of the initial dose. All measurements were corrected for radioactive decay.
Data were expressed as mean±standard deviation (SD). Prism software (GraphPAD, San Diego, Calif.) was used to determine statistical significance. Statistical significance was calculated using a paired t test. P-values <0.0001 were considered significant.
Mice bearing SK-RC-52 xenografts within the lower left flank were injected intravenously with 740 kBq (20 μCi) of [Al^18F]XYIMSR-04 in 200 μL of PBS. At specific 1 hour time point mentioned in the paper, mice (n=5) were sacrificed by cervical dislocation and the blood was immediately collected by cardiac puncture. Heart, lungs, pancreas, spleen, fat, brain, muscle, small intestines, liver, bone, stomach, kidney, urinary bladder, and tumor were collected. Each organ was weighed and the tissue radioactivity was measured with an automated gamma counter (1282 Compugamma CS, Pharmacia/LKBNuclear, Inc., Mt. Waverly, Vic. Australia). The percentage of injected dose per gram of tissue (% ID/g) was calculated by comparison with samples of a standard dilution of the initial dose. All measurements were corrected for radioactive decay. Data were expressed as mean±standard deviation (SD). Prism software (GraphPAD, San Diego, Calif.) was used to determine statistical significance. Statistical significance was calculated using a paired t test. P-values <0.0001 were considered significant.
Mice bearing SK-RC-52 xenografts within the upper right flank were injected intravenously with 740 kBq (20 μCi) of [^64Cu]XYIMSR-06 in 200 μL of PBS. For in vivo competition (binding specificity) studies, tumor-bearing mice were injected with 740 kBq (20 μCi) of [^64Cu]XYIMSR-06 and 200 nmole of 8 in 200 μL of PBS concurrently. At specific times after injection (1 h, 4 h, 8 h and 24 h), mice (n=5) were sacrificed by cervical dislocation with blood immediately collected by cardiac puncture. Heart, lungs, pancreas, spleen, fat, brain, muscle, small intestines, liver, stomach, kidney, urinary bladder, and tumor were also collected. Each organ was weighed and the tissue radioactivity was measured with an automated gamma counter (1282 Compugamma CS, Pharmacia/LKBNuclear, Inc., Mt. Waverly, Vic. Australia). The percentage of injected dose per gram of tissue (% ID/g) was calculated by comparison with samples of a standard dilution of the initial dose. All measurements were corrected for radioactive decay. Data were expressed as mean±standard deviation (SD). […]

SMILES: CC(CCC(=O)N[C@@H](CC(=O)N[C@@H](CC(=O)N[C@@H](CCCCn1cc(CCCC(=O)Nc2nnc(S(N)(=O)=O)s2)nn1)C(=O)NCCOCCOCCNC(=O)CN1CCN(CC(=O)[O-])CCN(CC(=O)[O-])CCN(CC(=O)[O-])CC1)C(=O)O)C(=O)O)(c1ccc(O)cc1)c1ccc(O)cc1.[111In+3] [[^111In]XYIMSR-01]
- Biodistribution Bladder (1 h post-injection): 4.90 % ID/g
- Biodistribution Blood (1 h post-injection): 1.34 % ID/g
- Biodistribution Brain (1 h post-injection): 1.23 % ID/g
- Biodistribution Fat (1 h post-injection): 1.03 % ID/g
- Biodistribution Heart (1 h post-injection): 5.98 % ID/g
- Biodistribution Kidney (1 h post-injection): 71.26 % ID/g
- Biodistribution Liver (1 h post-injection): 8.36 % ID/g
- Biodistribution Lung (1 h post-injection): 45.85 % ID/g
- Biodistribution Muscle (1 h post-injection): 2.34 % ID/g
- Biodistribution Pancreas (1 h post-injection): 3.81 % ID/g
- Biodistribution Small intestine (1 h post-injection): 9.37 % ID/g
- Biodistribution Spleen (1 h post-injection): 0.52 % ID/g
- Biodistribution Stomach (1 h post-injection): 16.71 % ID/g
- Biodistribution Tumor (1 h post-injection): 26 % ID/g and 26.01 % ID/g
- Tumor/Kidney ratio (1 h post-injection): 0.36
- Biodistribution Bladder (4 h post-injection): 2.68 % ID/g
- Biodistribution Blood (4 h post-injection): 0.65 % ID/g
- Biodistribution Brain (4 h post-injection): 0.45 % ID/g
- Biodistribution Fat (4 h post-injection): 0.42 % ID/g
- Biodistribution Heart (4 h post-injection): 2.91 % ID/g
- Biodistribution Kidney (4 h post-injection): 41.52 % ID/g
- Biodistribution Liver (4 h post-injection): 4.00 % ID/g
- Biodistribution Lung (4 h post-injection): 17.85 % ID/g
- Biodistribution Muscle (4 h post-injection): 1.01 % ID/g
- Biodistribution Pancreas (4 h post-injection): 1.54 % ID/g
- Biodistribution Small intestine (4 h post-injection): 4.27 % ID/g
- Biodistribution Spleen (4 h post-injection): 0.51 % ID/g
- Biodistribution Stomach (4 h post-injection): 7.91 % ID/g
- Biodistribution Tumor (4 h post-injection): 20.83 % ID/g
- Tumor/Blood ratio (4 h post-injection): 31.9
- Tumor/Kidney ratio (4 h post-injection): 0.50
- Tumor/Muscle ratio (4 h post-injection): 21.4
- Biodistribution Bladder (8 h post-injection): 2.28 % ID/g
- Biodistribution Blood (8 h post-injection): 0.48 % ID/g
- Biodistribution Brain (8 h post-injection): 0.59 % ID/g
- Biodistribution Fat (8 h post-injection): 0.45 % ID/g
- Biodistribution Heart (8 h post-injection): 2.61 % ID/g
- Biodistribution Kidney (8 h post-injection): 28.79 % ID/g
- Biodistribution Liver (8 h post-injection): 3.65 % ID/g
- Biodistribution Lung (8 h post-injection): 17.39 % ID/g
- Biodistribution Muscle (8 h post-injection): 1.09 % ID/g
- Biodistribution Pancreas (8 h post-injection): 1.61 % ID/g
- Biodistribution Small intestine (8 h post-injection): 4.31 % ID/g
- Biodistribution Spleen (8 h post-injection): 0.64 % ID/g
- Biodistribution Stomach (8 h post-injection): 8.74 % ID/g
- Biodistribution Tumor (8 h post-injection): 34.0 % ID/g
- Tumor/Blood ratio (8 h post-injection): 77.0
- Tumor/Kidney ratio (8 h post-injection): 3.1
- Tumor/Muscle ratio (8 h post-injection): 34.2
- All other tumor/organ ratios (24 h): ≥ 10
- Biodistribution Bladder (24 h + block (200 nmole of 8)): 0.20 % ID/g
- Biodistribution Blood (24 h + block (200 nmole of 8)): 0.03 % ID/g
- Biodistribution Brain (24 h + block (200 nmole of 8)): 0.03 % ID/g
- Biodistribution Fat (24 h + block (200 nmole of 8)): 0.02 % ID/g
- Biodistribution Heart (24 h + block (200 nmole of 8)): 0.04 % ID/g
- Biodistribution Kidney (24 h + block (200 nmole of 8)): 0.68 % ID/g
- Biodistribution Liver (24 h + block (200 nmole of 8)): 0.10 % ID/g
- Biodistribution Lung (24 h + block (200 nmole of 8)): 0.12 % ID/g
- Biodistribution Muscle (24 h + block (200 nmole of 8)): 0.02 % ID/g
- Biodistribution Pancreas (24 h + block (200 nmole of 8)): 0.03 % ID/g
- Biodistribution Small intestine (24 h + block (200 nmole of 8)): 0.08 % ID/g
- Biodistribution Spleen (24 h + block (200 nmole of 8)): 0.08 % ID/g
- Biodistribution Stomach (24 h + block (200 nmole of 8)): 0.14 % ID/g
- Biodistribution Tumor (24 h + block (200 nmole of 8)): 1.41 % ID/g
- Tumor/Blood ratio (24 h + block (200 nmole of 8)): 45.2
- Tumor/Kidney ratio (24 h + block (200 nmole of 8)): 2.1
- Tumor/Muscle ratio (24 h + block (200 nmole of 8)): 91.4
- Uptake to tumors with simultaneously injected non-radioactive competitor 8 (24 h and 48 h post injection): ~1%
- Biodistribution Bladder (24 h post-injection): 0.74 % ID/g
- Biodistribution Blood (24 h post-injection): 0.15 % ID/g
- Biodistribution Brain (24 h post-injection): 0.71 % ID/g
- Biodistribution Fat (24 h post-injection): 0.28 % ID/g
- Biodistribution Heart (24 h post-injection): 1.16 % ID/g
- Biodistribution Kidney (24 h post-injection): 15.29 % ID/g
- Biodistribution Liver (24 h post-injection): 3.02 % ID/g
- Biodistribution Lung (24 h post-injection): 11.01 % ID/g
- Biodistribution Muscle (24 h post-injection): 0.35 % ID/g
- Biodistribution Pancreas (24 h post-injection): 0.69 % ID/g
- Biodistribution Small intestine (24 h post-injection): 2.11 % ID/g
- Biodistribution Spleen (24 h post-injection): 0.69 % ID/g
- Biodistribution Stomach (24 h post-injection): 3.31 % ID/g
- Biodistribution Tumor (24 h post-injection): 25.62 % ID/g
- Biodistribution Bladder (48 h + block (200 nmole of 8)): 0.14 % ID/g
- Biodistribution Blood (48 h + block (200 nmole of 8)): 0.03 % ID/g
- Biodistribution Brain (48 h + block (200 nmole of 8)): 0.03 % ID/g
- Biodistribution Fat (48 h + block (200 nmole of 8)): 0.03 % ID/g
- Biodistribution Heart (48 h + block (200 nmole of 8)): 0.04 % ID/g
- Biodistribution Kidney (48 h + block (200 nmole of 8)): 0.45 % ID/g
- Biodistribution Liver (48 h + block (200 nmole of 8)): 0.13 % ID/g
- Biodistribution Lung (48 h + block (200 nmole of 8)): 0.09 % ID/g
- Biodistribution Muscle (48 h + block (200 nmole of 8)): 0.02 % ID/g
- Biodistribution Pancreas (48 h + block (200 nmole of 8)): 0.03 % ID/g
- Biodistribution Small intestine (48 h + block (200 nmole of 8)): 0.08 % ID/g
- Biodistribution Spleen (48 h + block (200 nmole of 8)): 0.11 % ID/g
- Biodistribution Stomach (48 h + block (200 nmole of 8)): 0.14 % ID/g
- Biodistribution Tumor (48 h + block (200 nmole of 8)): 1.22 % ID/g
- Tumor/Blood ratio (48 h + block (200 nmole of 8)): 45.4
- Tumor/Kidney ratio (48 h + block (200 nmole of 8)): 2.7
- Tumor/Muscle ratio (48 h + block (200 nmole of 8)): 75.1
- Biodistribution Bladder (48 h post-injection): 0.38 % ID/g
- Biodistribution Blood (48 h post-injection): 0.06 % ID/g
- Biodistribution Brain (48 h post-injection): 0.41 % ID/g
- Biodistribution Fat (48 h post-injection): 0.25 % ID/g
- Biodistribution Heart (48 h post-injection): 0.84 % ID/g
- Biodistribution Kidney (48 h post-injection): 8.78 % ID/g
- Biodistribution Liver (48 h post-injection): 1.65 % ID/g
- Biodistribution Lung (48 h post-injection): 9.22 % ID/g
- Biodistribution Muscle (48 h post-injection): 0.39 % ID/g
- Biodistribution Pancreas (48 h post-injection): 0.59 % ID/g
- Biodistribution Small intestine (48 h post-injection): 1.22 % ID/g
- Biodistribution Spleen (48 h post-injection): 0.67 % ID/g
- Biodistribution Stomach (48 h post-injection): 1.82 % ID/g
- Biodistribution Tumor (48 h post-injection): 13.92 % ID/g
- Tumor/Blood ratio (48 h post-injection): 212.0
- Tumor/Kidney ratio (48 h post-injection): 1.5
- Tumor/Muscle ratio (48 h post-injection): 52.0
